Data as given in patent publication US20200165572A1, “ENGINEERED SUBSTRATES FOR HIGH-THROUGHPUT GENERATION OF 3D MODELS OF TUMOR DORMANCY, RELAPSE AND MICROMETASTASES FOR PHENOTYPE SPECIFIC DRUG DISCOVERY AND DEVELOPMENT” (Arizona Board of Regents on behalf of Arizona State …, priority 2015, published 2020).
“Also recorded” adds a separate entry of the source. Where two headings read alike, the source gives them in different places. Peptide text beside a SMILES is read from it. * marks the point of attachment. Cbz = O=C(OCc1ccccc1)*; CH2F = FC*

How the values were obtained:
dormant T24 3DTMs [1] = settings: for effect of pan-caspase inhibition on thapsigargin-bortezomib induced cell death: dormant T24 spheroids
Procedure: (§1) Different concentrations (12.5, 25, 50 and 100 μM) of the anticancer drugs docetaxel, (10-40 μM) mitoxantrone, or (250-500 μM) thioTEPA were added to 3DTMs formed after 5-7 days of initial cell seeding on Amikagel. Drugs were added to 3DTMs of T24 cells co-cultured with NIH3T3 murine fibroblasts on day 5, but added to 3DTMs of T24 cells alone on day 7 due to the different times required for their formation After 96 hours of drug exposure, 3DTMs were disassembled using 50 μl of 5 mg/ml collagenase for 20 minutes to allow disassembly for co-culture spheroids, and cell viability was assessed by Live/Dead® staining followed by flow cytometry. 3DTM viability was also measured using MTT/XTT assay as described previously [28]. […] A calcium concentration of 5 mM was used with calcimycin ionophore of different concentrations (0.1, 0.5, 1, 5 and 10 μM) were used to induce cell death. Calcium liposomes were also added at a concentration of 175 μM to the dormant cells.
(§2) Viability of 3DTMs was also determined using the Live-Dead® (Calcein AM-Ethidium homodimer) staining assay. Fresh serum free DMEM media, containing a final concentration of 1 μM of calcein AM and 2 μM of ethidium homodimer-1 (EthD-1), was added to the 3DTMs, and fluorescence imaging was carried out using a Zeiss fluorescence microscope after incubating the reagents for 20 minutes. Green fluorescence emission of calcein-AM inside the live cells was detected using 38 HE filter set (Excitation: 470/40; Emission: 525/50) and red fluorescence of nucleic acid bound-EthD-1 was detected using a 43 HE filter set (Excitation: 550/25; Emission: 605/70). The extent of red and green fluorescence were indicative of the extent of viable and dead cells, respectively, in the 3DTM.
(§3) To quantify the percent dead cells using flow cytometer following drug treatment, 3DTMs were disassembled using collagenase as described previously (whenever necessary). Disassembled cells were suspended in 1×PBS containing a final concentration of 1 μM of Calcein AM and 2 μM of Ethidium Homodimer-1 (EthD-1). After incubating for 20 minutes, fluorescence images were collected as described in previous sections. Cell viability was further quantified using flow cytometry on the same sample using BD FACSAria™ III. Red fluorescence of EthD-1 was detected using a 43 HE filter set (Excitation: 550/25; Emission: 605/70).

dormant 3DTMs = assay: Intracellular calcium imaging; type: cell-based, human; settings: 3-hour treatment
Procedure: Dormant 3DTMs grown on AM3 Amikagels were treated with calcimycin (0.5 and 5 μM) with calcium (5 mM) and calcium liposomes (175 μM) for 3 hours (3 dormant 3DTMs each). Following 3 hours, the 3DTMs were disassembled using rapid pipetting and cells were collected by centrifugation. The cells were washed with 1×PBS and resuspended in 50 μL cell culture media+50 μL Fluo-4 dye solution (prepared as per vendor's recommendation). After incubation for 60 minutes, the cells were imaged at excitation: 494 nm, emission: 516 nm. Green color fluorescence was used as an indicator of intracellular calcium concentration. Intracellular calcium fluorescence was quantified using imageJ.

T24 cells in 2D culture [2] = settings: cited from earlier work
NIH3T3-T24 3DTMs = assay: Drug efficacy on NIH3T3-T24 3DTM viability; type: cell-based, human, murine
Procedure: After three important tumor phenotypes were captured on Amikagels, we used Amikagel-3DTM platform for high throughput drug screens against those specific phenotypes. T24 (alone), and NIH3T3-T24 3DTMs were exposed to different doses of the DNA-damaging drug, mitoxantrone (31) or the microtubule-stabilizing drug, docetaxel for 96 hours (32). Co-culture 3DTMs were treated with collagenase to allow their disassembly before cell-viability measurement. It was noticed that collagenase treatment enabled very easy diassembly of the co-culture 3DTMs, supporting our previous finding of ECM production.

CHOP = CHOP expression by western blotting; type: cell-based, human; settings: calcimycin 0.5-μM
Procedure: […] The lysates were then sonicated thrice for 10-15 seconds on ice and collected by centrifugation (16,000 rpm, 20 minutes, 4° C.). Supernatants containing the whole cell protein were stored at −20° C. for subsequent use.
BCA assay was used to quantify the total protein content of the cell lysates. Equivalent quantities of whole cell proteins (4 μg) were combined with 2× Laemmli buffer containing 5% β-mercaptoethanol, and were heat denatured for 5 minutes at 95° C. Equal amounts of protein (4 μg) were then loaded into to the wells of pre-cast gels and run for 35 minutes at 200 V in running buffer (25 mM Tris, […], and 0.1% SDS, pH=8.3). The proteins were transferred to a methanol-activated Hybond PVDF membrane for 30 minutes at 20 V in the transfer buffer (25 mM Tris, 190 mM glycine, and 20% methanol, pH=8.3). The Hybond PVDF membrane was rinsed with 1×PBST and blocked with 3% blocking buffer 3× for 5 minutes each. The membrane was then incubated with the primary antibody for 12 hours at 4° C. (1:1000 CHOP D46F1 Rabbit mAb primary antibody) and (1:5000 f-actin Rabbit Ab primary antibody). […]
Area of the proteins actin and CHOP on the […] membranes were measured using image-J software. The CHOP proteins from treatment samples were then normalized to their actin content and expressed which was further expressed as a percentage of the live control.

dormant T24 3DTMs [3] = assay: cells; settings: Homo sapiens, 24 h, read-out: LC50
Procedure: as §1, §2, §3

T24 bladder cancer cells = assay: Cell cycle analysis of T24 3DTMs; type: cell-based, human
Procedure: Following five days of incubation on AM3 Amikagels, 3DTMs of T24 cells with NIH3T3 murine fibroblast cells were harvested for cell cycle analysis. Four or five individual 3DTMs of T24 cells alone or UMUC3 cells alone were harvested on the 7th day after seeding on Amikagels, collected in an eppendorf tube. 50 μl of 5 mg/ml collagenase was added to 3DTMs prepared using fibroblast helper cells for 30 minutes at 37° C. in order to facilitate their disassembly by gentle pipetteing. Single cell 3DTMs were disassembled using manual pipetting. Disassembled 3DTM cells were then centrifuged at 200 r.c.f. in order to collect the cell pellet. The pellet was resuspended in a solution of 1% v/v 1× Triton-X, 5% (v/v) fetal bovine serum (FBS), 50 μg/mL propidium iodide, and 0.006-0.01 units/mL ribonuclease A. After incubation for 30 minutes on ice, cells were analyzed for their cell cycle profiles using flow cytometry; the propidum iodide (PI) signal was detected using an excitation at 535 nm and emission at 617 nm. Voltages of the FL2-A, SSC and FSC channels were adjusted in order to obtain best representative peaks for alignment of 2n (diploidy—G0/G1) peak to 200 intensity units during flow cytometry. FL2A (FL2-Area) provides the information regarding the pulse area of the emitted fluorescence signal (total cell fluorescence) whereas […] light from the sample. FSC is a measure of diffracted light from the sample proportional to cell surface area or size and SSC is proportional to cell granularity or internal complexity.

dormant T24 3DTMs [4] = assay: Escape from dormancy after transfer of T24 3DTMs from AM3 to AM1 Amikagel; type: cell-based, human; settings: for microcolony formation: 100 μM pre-treatment, 15 days after transfer to AM1
Procedure: T24 3DTMs were first formed on AM3 Amikagels, and transferred to AM1 Amikagels on the seventh day following initial cell seeding, in order to investigate the role of chemo-mechanical properties of Amikagels on 3DTM fate, dormancy and escape from dormancy. Upon transfer, 3DTMs were monitored for cell spreading and motility on the gel for an additional 7 days. After 7 days, cell cycle analysis was carried out on the all 3DTMs as described in the previous sections.
Long-term experiments were also carried out where 3DTMs were continuously monitored for 15 days after their tranfer from AM3 gel to AM1 gel. In order to study the effect of drug treatment, T24 3DTMs were first treated with 0-100 μM docetaxel for 96 hours after 7 days of initial seeding of cells on AM3 gel. After 96 hours of this drug treatment, the 3DTMs were transferred to AM1 gel to study how different chemo-mechanical properties influenced escape from dormancy. Similar studies were also performed using ROCK inhibitor Y-27632 (20 μM).

T24 cells in 2D culture [5] = assay: cells; type: cell-based; settings: Homo sapiens, T-24, 96 h, read-out: LC50
Procedure: Cell death (%) after exposure of 5000 T24 cells to docetaxel for 96 hours after 2D cell culture measured by using MTT assay (circles).

## COC(=O)C[C@H](NC(=O)[C@H](C)NC(=O)[C@@H](NC(=O)OCc1ccccc1)C(C)C)C(=O)CF [zVAD-fmk] (Cbz-Val-Ala-Asp(OMe)-CH2F)
Dormant T24 3DTMs [1]; 24-hour, 10-μM or 5-μM calcimycin, 5 mM calcium, 5-μM zVAD-fmk
  effect of pan-caspase inhibition on calcimycin-induced death: did not rescue
Dormant T24 3DTMs [1]; 96 hours
  effect of pan-caspase inhibition on thapsigargin-bortezomib induced cell death: reversed
Dormant T24 3DTMs [1]; 96 hours, listed as z-VAD-fmk
  effect of pan-caspase inhibition on thapsigargin-bortezomib induced cell death: significantly rescued

## [Ca+2].[Cl-].[Cl-] [calcium, calcium chloride]
Dormant T24 3DTMs [1]; free calcium in cell culture media 40 mM, 96 hours
  impact on dormant cell viability: minimal impact on dormant cell viability
Dormant 3DTMs
  intracellular calcium fluorescence compared to DMSO control: significantly higher

## O=C1c2c(O)ccc(O)c2C(=O)c2c(NCCNCCO)ccc(NCCNCCO)c21 [mitoxantrone]
T24 cells in 2D culture [2]
  CC50: ~9 µM
NIH3T3-T24 3DTMs; doses as high as 80 μM, 96 hours
  response of NIH3T3-T24 3DTMs: resistant

## C/C=C(/C)C(=O)O[C@H]1C(C)=C2[C@H]([C@@H]1OC(=O)CCCCCCC)[C@@](C)(OC(C)=O)C[C@H](OC(=O)CCC)[C@@]1(O)[C@H]2OC(=O)[C@@]1(C)O [thapsigargin]
Dormant T24 3DTMs [1]; single agent, 15-μM, 96 hour treatment
  cell death: 50%

## CNc1ccc2oc(C[C@H]3O[C@@]4(CC[C@H]3C)O[C@H]([C@H](C)C(=O)c3ccc[nH]3)[C@H](C)C[C@H]4C)nc2c1C(=O)O [calcimycin]
CHOP
  CHOP protein expression: No CHOP protein expression
Dormant T24 3DTMs [3]
  CC50: ~10 µM
Dormant T24 3DTMs [1]; 24-hour time point
  cell death dose response: concentration dependent cell death
Dormant 3DTMs
  intracellular calcium fluorescence compared to DMSO control: significantly higher

## C[C@@H](N)[C@H]1CC[C@H](C(=O)Nc2ccncc2)CC1 [Amikagel Y-27632, Y-27632]
T24 bladder cancer cells; 20-μM, 96 hours
  cell cycle profile of dormant cells on AM3 gels: did not observe any changes in the cell cycle profile
Dormant T24 3DTMs [4]; 20-μM for 96 hours on AM3 gel, then transfer to AM1 gel
  cell escape from mother spheroid: increase in the number of cells escape

## S=P(N1CC1)(N1CC1)N1CC1 [ThioTEPA]
NIH3T3-T24 3DTMs; up to a concentration as high as 500 μM
  response of NIH3T3-T24 3DTMs: resistant

## CC(=O)O[C@@]12CO[C@@H]1C[C@H](O)[C@@]1(C)C(=O)[C@H](O)C3=C(C)[C@@H](OC(=O)[C@H](O)[C@@H](NC(=O)OC(C)(C)C)c4ccccc4)C[C@@](O)([C@@H](OC(=O)c4ccccc4)[C@H]21)C3(C)C [docetaxel]
T24 bladder cancer cells; drug-treated dormant T24 3DTMs
  cells in G2/M phase of treated dormant T24 3DTMs: did not change the number of cells in G2/M phase
  cells in pre G0/G1 phase of treated dormant T24 3DTMs: increase in the number of cells in the pre G0/G1 phase
Dormant T24 3DTMs [1]; 100 μM, 96 hours, compared to live control
  cell death: ~10%
Dormant T24 3DTMs [1]; different doses, 96 hours of exposure, listed as Docetaxel
  effect on cell viability of T24 3DTMs: did not have any impact on the cell viability
Dormant T24 3DTMs [4]; 12.5 μM-100 μM for 96 hours on AM3, then transfer to AM1
  cell escape from mother 3DTM: significantly reduced the number of cells escaping; also recorded: significantly lesser number of cells escaped
Dormant T24 3DTMs [4]
  microcolony formation: drastically reduced
Dormant T24 3DTMs [4]; listed as Docetaxel
  microcolony formation: inhibited microcolony formation
T24 cells in 2D culture [5]
  CC50: 10 µM
